Source: patent US12152077B1, “Immunotherapy targeting tumor neoantigenic peptides” (INSTITUT CURIE, priority 2019, dated 2024)
Entries after “also recorded” stand apart in the source; their conditions may differ.

What was measured:
[1] = tested on: CD8+ T cells from HLA-A2+ healthy donors; assay: Priming of naive CTLs by peptide-loaded autologous moDCs (immunogenicity, tetramer staining); assay type: cell-based, human; conditions: for specific CD8+ T expansions (immunogenicity): total of 6 donors, FIG. 11A; for expansion of specific CD8+ T cells (tetramer positive): one donor, versus co-culture without peptides
Method: Priming of naïve CTLs. PBMCs were obtained by Ficoll gradient separation from HLA-A2+ healthy blood donors. CD14+, CD4+ and CD8+ cells were purified by positive selection using magnetic beads (Miltenyi Biotec). While CD4+ and CD8+ T cells were cryopreserved until the experiment day, CD14+ fraction was cultured in the presence of IL-4 (50 ng/mL) and GM-CSF (10 ng/ml) at 10^6 cells/mL during 5 days to obtain moDCs. After this period of time, the moDCs were maturated with LPS and incubated with synthetic ER-derived peptides at a final concentration of 1 μg/mL for 2 hours. Finally, peptide-loaded moDCs were co-cultured with autologous CD4+ and CD8+ T cells in culture medium supplemented with IL-2 (10 U/ml) and IL-7 (100 ng/ml). The ER-derived peptide stimulation of specific CD8+ CTL populations was assessed by MHC-I tetramer staining by flow cytometry using a combination of two-color tetramer for each peptide.
(§1) Tetramer Staining. Cells were resuspended in PBS, stained with Live/Dead Aqua-405 nm (ThermoFisher) during 20 minutes at 4° C. and washed once. After that, cells were resuspended in PBS-1% BSA containing the mix of SA-coupled tetramers and incubated in the dark at room temperature during 20 minutes. Without further washing, surface antibodies were added in PBS-1% BSA and cells were incubated 20 minutes in the dark at 4° C. Surface antibodies were a combination of anti-CD3-BV650+ anti-CD8-PECy7 in combination with anti-CCR7-AF700+ anti-CD45RA-BUV395 when required. Finally, cells were washed twice and resuspended in FACS buffer for flow cytometry analysis.
The following step after binding validation to HLA-A2 allele, was to test the immunogenicity of predicted peptides. Priming assays were thus performed to test the ability of identified peptides to expand specific cytotoxic T cells. PBMCs from HLA-A2+ healthy donors were used to generate monocyte derived-DCs (moDCs). After loading the moDCs with a mix of synthetic peptides, autologous co-culture was performed with CD4+ and CD8+ T cells. Finally, the expansion of specific CD8+ T cells was analysed by flow cytometry using two-colours tetramer staining. As a control of specific expansion, the co-culture was performed in the absence of peptides. […] The same experiment was performed in order to evaluate the response in additional 5 donors.

[2] = tested on: TILs derived from LUAD patients; assay: Tetramer staining of expanded tumor infiltrating lymphocytes (TILs); assay type: cell-based, human; conditions: TILs expanded with peptide mix + IL-2 or IL-2 only; HLA-A2+ LUAD patients
Method: as §1
Tumor infiltrating lymphocytes (TILs) cultures. Tumor tissue was cut into small pieces (1-3 mm3 size, 6-12 pieces maximum). Each tumor fragment was transferred into individual wells from 24-well plates and cultured in a final volume of 2 ml RPMI 10% Human Serum+IL-2 6000 IU/ml. Cells were feed/split as necessary during 15-20 days and cryopreserve or analyzed for tetramer staining.
In a first set of experiments tumor infiltrating lymphocytes (TILs) expanded with a mix of TE-derived peptides and Il-2, or only with Il-2, were analyzed by tetramer staining. As is shown in FIGS. 13A and B, we found CD8+ T-cells cells recognizing fusion-derived peptides in TILs derived from LUAD patients.

Sequence | specific CD8+ T expansions (immunogenicity) [1] | expansion of specific CD8+ T cells (tetramer positive) [1] | CD8+ T cells recognizing peptide in TILs (tetramer positive) [2]
AMDGKELSL | specific CD8+ T expansions | – | –
RLADHLSFC | specific CD8+ T expansions; also recorded: immunogenic | expand specific CD8+ T cells | –
ILTASITSI | specific CD8+ T expansions | – | –
RLLHLESFL | – | expand specific CD8+ T cells | –
FLIVAEILI | – | expand specific CD8+ T cells | –
YLWTTFFPL | specific CD8+ T expansions | expand specific CD8+ T cells | –
ILSGYGPCV | specific CD8+ T expansions | – | –
ILHSLVTGV | specific CD8+ T expansions | – | –
GLLNISHTA | specific CD8+ T expansions | – | –
FLGTRVTRV | specific CD8+ T expansions | – | –
VLLTNTIWL | specific CD8+ T expansions | – | –
LLDRFGYHV | specific CD8+ T expansions | – | –
LLHLESFLV | specific CD8+ T expansions | – | –
GLPSHVELA | specific CD8+ T expansions; also recorded: immunogenic | – | found TILs recognizing
LLGETKVYV | specific CD8+ T expansions | expand specific CD8+ T cells | –
LLTSWHLYL | specific CD8+ T expansions | – | –
SLMQSGSPV | specific CD8+ T expansions | – | –
AILPKANTV | specific CD8+ T expansions | expand specific CD8+ T cells | –
MLVTWELAL | specific CD8+ T expansions | – | –
RQAPGFHHA | specific CD8+ T expansions | – | –
MLMKTVWQA | specific CD8+ T expansions | – | –
